# ChEMBL document CHEMBL5465560, “Selectivity Literature for EUbOPEN Chemogenomic Library” (2024)
# Tests used:
# [1] = molecular target: Angiopoietin-1 receptor (Homo sapiens) (UniProt Q02763); assay: Selectivity interaction (KinomeScan (DiscoverX)) EUB0001079a TEK; conditions: at 1 µM
# [2] = molecular target: T1, G protein-coupled receptor kinase 3 (Homo sapiens) (UniProt P35626); assay: Selectivity interaction (Kinase panel (Invitrogen)) EUB0000639a ADRBK2; conditions: at 200 nM
# T1 sequence (whole entry): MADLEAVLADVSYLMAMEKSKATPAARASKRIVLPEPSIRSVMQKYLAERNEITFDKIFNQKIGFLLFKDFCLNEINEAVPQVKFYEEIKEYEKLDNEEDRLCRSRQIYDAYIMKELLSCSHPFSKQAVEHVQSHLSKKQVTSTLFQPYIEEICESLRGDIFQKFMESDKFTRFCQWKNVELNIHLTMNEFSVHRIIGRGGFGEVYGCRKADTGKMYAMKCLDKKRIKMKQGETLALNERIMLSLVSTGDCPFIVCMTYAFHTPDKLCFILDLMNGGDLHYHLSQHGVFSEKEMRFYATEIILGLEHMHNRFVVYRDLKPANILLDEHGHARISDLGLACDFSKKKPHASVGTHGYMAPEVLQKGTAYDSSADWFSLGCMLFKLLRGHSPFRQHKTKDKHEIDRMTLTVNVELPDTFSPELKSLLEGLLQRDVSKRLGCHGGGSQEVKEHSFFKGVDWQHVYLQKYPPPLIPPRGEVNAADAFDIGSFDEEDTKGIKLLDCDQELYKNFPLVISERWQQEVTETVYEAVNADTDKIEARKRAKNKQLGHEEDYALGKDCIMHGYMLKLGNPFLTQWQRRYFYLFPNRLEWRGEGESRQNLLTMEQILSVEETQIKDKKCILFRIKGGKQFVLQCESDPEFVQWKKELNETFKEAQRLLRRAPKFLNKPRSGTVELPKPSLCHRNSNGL
# [3] = molecular target: T2, Serine/threonine-protein kinase Nek1 (Homo sapiens) (UniProt Q96PY6); assay: Selectivity interaction (Ambit KINOMEscan and KiNATiv profiling in Jurkat cells) EUB0000090b NEK1; format: cell-based; conditions: at 1 µM
# T2 sequence (whole entry): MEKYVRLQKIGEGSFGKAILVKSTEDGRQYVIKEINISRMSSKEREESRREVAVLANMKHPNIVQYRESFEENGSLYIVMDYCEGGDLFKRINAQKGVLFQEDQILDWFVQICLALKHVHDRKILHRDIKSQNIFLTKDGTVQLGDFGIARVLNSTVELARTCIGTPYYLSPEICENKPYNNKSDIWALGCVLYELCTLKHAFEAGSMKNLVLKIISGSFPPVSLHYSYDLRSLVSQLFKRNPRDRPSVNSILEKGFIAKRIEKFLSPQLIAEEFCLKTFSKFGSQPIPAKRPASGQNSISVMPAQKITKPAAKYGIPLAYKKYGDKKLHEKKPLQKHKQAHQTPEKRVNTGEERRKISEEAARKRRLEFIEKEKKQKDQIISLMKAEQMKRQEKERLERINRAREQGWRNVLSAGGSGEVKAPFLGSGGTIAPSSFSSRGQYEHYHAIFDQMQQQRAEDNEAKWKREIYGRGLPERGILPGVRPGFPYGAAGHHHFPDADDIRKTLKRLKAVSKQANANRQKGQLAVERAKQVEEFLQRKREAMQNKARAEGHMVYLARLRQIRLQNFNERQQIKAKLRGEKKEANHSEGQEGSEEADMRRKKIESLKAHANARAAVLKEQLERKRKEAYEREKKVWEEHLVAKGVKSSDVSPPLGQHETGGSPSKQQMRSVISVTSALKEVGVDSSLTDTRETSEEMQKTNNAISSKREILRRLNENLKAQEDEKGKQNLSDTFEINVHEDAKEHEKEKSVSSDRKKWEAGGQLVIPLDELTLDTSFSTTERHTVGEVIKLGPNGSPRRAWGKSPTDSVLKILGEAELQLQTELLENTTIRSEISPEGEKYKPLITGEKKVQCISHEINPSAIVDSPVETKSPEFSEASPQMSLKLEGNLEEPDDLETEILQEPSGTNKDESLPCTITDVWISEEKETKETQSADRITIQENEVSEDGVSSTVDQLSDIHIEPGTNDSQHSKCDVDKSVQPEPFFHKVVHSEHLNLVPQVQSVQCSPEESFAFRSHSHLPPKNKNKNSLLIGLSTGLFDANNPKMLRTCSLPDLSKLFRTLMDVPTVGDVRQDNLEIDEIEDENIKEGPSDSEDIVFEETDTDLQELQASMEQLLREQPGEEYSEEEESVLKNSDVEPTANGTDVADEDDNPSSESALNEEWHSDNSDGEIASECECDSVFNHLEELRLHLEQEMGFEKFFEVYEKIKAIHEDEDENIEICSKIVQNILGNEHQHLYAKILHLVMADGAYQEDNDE
# [4] = molecular target: Cyclin-dependent kinase 13 (Homo sapiens, UniProt Q14004); assay: Selectivity interaction (KinomeScan (DiscoverX)) EUB0000655a CDK13; conditions: at 10 µM
# Sequence of Cyclin-dependent kinase 13 (Q14004 whole entry, looked up): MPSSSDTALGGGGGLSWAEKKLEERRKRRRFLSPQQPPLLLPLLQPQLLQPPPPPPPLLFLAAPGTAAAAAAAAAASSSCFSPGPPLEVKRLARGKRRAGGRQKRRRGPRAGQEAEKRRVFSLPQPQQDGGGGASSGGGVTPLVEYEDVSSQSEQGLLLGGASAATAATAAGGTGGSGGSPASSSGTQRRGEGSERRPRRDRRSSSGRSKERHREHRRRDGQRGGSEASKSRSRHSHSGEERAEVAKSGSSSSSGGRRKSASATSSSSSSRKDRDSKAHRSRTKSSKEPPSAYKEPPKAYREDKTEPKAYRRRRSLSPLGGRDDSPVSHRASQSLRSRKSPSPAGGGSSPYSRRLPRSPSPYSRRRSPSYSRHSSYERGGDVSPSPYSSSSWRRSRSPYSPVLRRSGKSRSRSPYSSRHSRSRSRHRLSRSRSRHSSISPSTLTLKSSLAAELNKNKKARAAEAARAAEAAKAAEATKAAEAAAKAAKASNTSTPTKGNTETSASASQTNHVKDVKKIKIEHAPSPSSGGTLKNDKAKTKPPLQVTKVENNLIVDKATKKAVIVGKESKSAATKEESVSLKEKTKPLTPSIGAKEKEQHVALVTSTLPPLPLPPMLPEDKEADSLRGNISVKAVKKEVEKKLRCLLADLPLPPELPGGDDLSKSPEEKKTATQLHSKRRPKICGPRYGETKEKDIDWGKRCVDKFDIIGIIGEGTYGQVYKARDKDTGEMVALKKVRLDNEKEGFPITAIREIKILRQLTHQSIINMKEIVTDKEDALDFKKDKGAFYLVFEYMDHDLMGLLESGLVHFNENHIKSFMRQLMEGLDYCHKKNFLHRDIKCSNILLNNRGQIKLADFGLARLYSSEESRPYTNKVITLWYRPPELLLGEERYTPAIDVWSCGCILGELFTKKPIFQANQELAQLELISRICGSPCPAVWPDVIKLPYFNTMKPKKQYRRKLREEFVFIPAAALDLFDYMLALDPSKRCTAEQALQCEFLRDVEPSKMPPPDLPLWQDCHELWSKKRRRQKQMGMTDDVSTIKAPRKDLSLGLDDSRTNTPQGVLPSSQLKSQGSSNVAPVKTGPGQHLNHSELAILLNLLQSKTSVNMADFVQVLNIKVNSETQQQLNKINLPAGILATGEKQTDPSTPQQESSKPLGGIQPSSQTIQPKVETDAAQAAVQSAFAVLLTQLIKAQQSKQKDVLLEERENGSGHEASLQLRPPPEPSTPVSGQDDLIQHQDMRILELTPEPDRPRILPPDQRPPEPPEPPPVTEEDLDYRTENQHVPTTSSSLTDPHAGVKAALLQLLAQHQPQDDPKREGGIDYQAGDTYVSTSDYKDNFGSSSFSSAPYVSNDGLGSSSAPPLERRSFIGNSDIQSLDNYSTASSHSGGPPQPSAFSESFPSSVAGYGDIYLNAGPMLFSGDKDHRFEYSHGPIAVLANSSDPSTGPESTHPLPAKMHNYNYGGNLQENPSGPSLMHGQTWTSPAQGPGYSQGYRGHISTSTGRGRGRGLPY
# Sequence of Angiopoietin-1 receptor (Homo sapiens) (Q02763 whole entry): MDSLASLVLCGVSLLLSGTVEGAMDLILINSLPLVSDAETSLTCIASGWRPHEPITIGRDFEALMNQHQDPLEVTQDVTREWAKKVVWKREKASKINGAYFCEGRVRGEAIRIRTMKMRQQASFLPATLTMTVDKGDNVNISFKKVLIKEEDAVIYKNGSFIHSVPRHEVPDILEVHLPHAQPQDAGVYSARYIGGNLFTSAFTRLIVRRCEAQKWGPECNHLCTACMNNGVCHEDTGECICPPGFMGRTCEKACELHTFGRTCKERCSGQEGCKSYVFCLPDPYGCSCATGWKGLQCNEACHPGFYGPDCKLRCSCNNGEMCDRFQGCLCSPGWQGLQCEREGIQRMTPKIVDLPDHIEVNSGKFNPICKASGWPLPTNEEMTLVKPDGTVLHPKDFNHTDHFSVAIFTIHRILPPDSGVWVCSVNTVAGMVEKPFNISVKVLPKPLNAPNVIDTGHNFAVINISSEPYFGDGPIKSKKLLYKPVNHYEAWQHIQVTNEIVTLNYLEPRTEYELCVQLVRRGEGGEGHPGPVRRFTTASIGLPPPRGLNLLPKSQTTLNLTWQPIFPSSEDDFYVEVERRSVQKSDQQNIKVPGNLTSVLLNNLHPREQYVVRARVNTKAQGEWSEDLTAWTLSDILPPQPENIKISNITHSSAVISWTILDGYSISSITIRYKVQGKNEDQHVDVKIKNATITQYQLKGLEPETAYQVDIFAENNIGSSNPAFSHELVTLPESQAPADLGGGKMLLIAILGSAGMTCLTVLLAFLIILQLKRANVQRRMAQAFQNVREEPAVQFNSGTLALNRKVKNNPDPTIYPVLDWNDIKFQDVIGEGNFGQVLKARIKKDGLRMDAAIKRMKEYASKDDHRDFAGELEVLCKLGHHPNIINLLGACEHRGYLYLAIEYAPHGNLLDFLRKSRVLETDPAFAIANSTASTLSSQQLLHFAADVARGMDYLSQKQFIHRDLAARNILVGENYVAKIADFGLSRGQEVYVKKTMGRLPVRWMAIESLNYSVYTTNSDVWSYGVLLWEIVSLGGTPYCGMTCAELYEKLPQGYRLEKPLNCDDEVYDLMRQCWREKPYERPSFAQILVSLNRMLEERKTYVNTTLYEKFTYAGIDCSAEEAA
structure (smiles),measurement,setting,value
Nc1cnc(N2CCc3cc(S(=O)(=O)Nc4c(F)cc(Cl)cc4F)cc(N4CCCC4=O)c32)nc1 [TP-020n],% of control,[1],78%
CC[C@@H]1[C@H](F)C(=O)N[C@@H]1COc1nccc2cc(C(N)=O)c(OC)cc12 [ZIMLOVISERTIB],% of inhibition,[2],2.95%
CN(C)C/C=C/C(=O)Nc1ccc(C(=O)N2CCCC(Nc3ncc(Cl)c(-c4c[nH]c5ccccc45)n3)C2)cc1 (centres undefined),% of control,[3],100%
CN(C)CCOc1ccc(-c2nc(-c3ccncc3)c(-c3ccc4c(c3)CC/C4=N\O)[nH]2)cc1,% of control,[4],100%
